# Measurements: ChEMBL document CHEMBL3046805, “Synthesis and antimalarial evaluation of novel pyridine quinoline hybrids” (Med Chem Res, 2008)
# Assays:
# [1] = system: Plasmodium falciparum; test: Antiplasmodial activity against chloroquine-sensitive Plasmodium falciparum assessed as vacuolar accumulation ratio; format: functional
# [2] = Inhibition of beta-hematin polymerization after 24 hr by spectrophotometric analysis; format: physicochemical
# [3] = system: Plasmodium falciparum; test: Antiplasmodial activity against chloroquine-sensitive Plasmodium falciparum after 30 to 34 hr by schizont maturation assay; format: functional, organism-based
IC50 [2],IC50 [3],Compound,Ratio [1]
2.17 mM,0.0064 mM,Brc1cc2c(c3ncccc13)Oc1ncccc1O2,1.03
2.11 mM,0.0037 mM,Clc1ncccc1Oc1cc2c(c3ncccc13)Oc1ncccc1O2,1.2
1.89 mM,,CCN(CC)CCCC(C)Nc1ccnc2cc(Cl)ccc12 (stereo not given) [CHLOROQUINE],

Compound,IC50 [2],IC50 [3],Ratio [1]
Brc1cc2c(c3ncccc13)Oc1cc(Br)c3cccnc3c1O2,2.78 mM,0.0074 mM,1.01
